Assay results as given in paper PMC9863266, “Preclinical Studies and Drug Combination of Low-Cost Molecules for Chagas Disease” (Pharmaceuticals, 2022).
“And” between values parts separate entries of the source, which are not always exact repeats. Identical values can stand only once.

Assays:
[1] = test system: CL Brener clone of T. cruzi; experiment: Acute murine model of Chagas disease; type: in vivo, Balb/c mice
Description: Three-month-old Balb/c mice were infected (day 0) with infected blood from mice at the beginning of the peak of parasitemia (parasitemia greater than 1.0 × 10^6 p /mL with the CL Brener clone of T. cruzi) by intraperitoneal injection (10,000 parasites per mouse). Parasitemia was followed from the fourth-day post-infection until all the mice in the group were positive. Parasitemia measurements were performed by optical microscopy. Once all the mice were positive, the treatment was started. The treatment lasted 15 consecutive days; the compounds were administered orally by intragastric cannula once a day. Parasitemia was monitored weekly. At 30 and 60 days, 200 μL of blood was extracted from the mouse tail for serological tests (ELISA test) to detect antigens of T. cruzi. Day 60 was the end of the experiment, and the animals were sacrificed.
Hemoconcentration and counting micromethod: the mice were bled by pricking the tail and taking the blood with capillaries. One capillary per mouse draws 8-18 mm in height of blood. The millimeters were converted to μL by a table previously described and calibrated in the laboratory. The capillaries were centrifuged at 3000× g for 40 s. The parasitic load in the capillary was observed by optical microscopy (OM) in the capillary: the red blood cells (GR) were distributed at one end and the supernatant serum at the other end, at the interface is the trypomastigotes. Then, the capillary was cut a few mm on the interface towards the GR part and its content was spread on a slide, covered with a coverslip. Then, the total number of parasites in 50 fields (OM at 40× magnification) was counted. This sum was then multiplied by 1/50 to obtain the average number of trypomastigotes per field, corresponding to the number of trypanosomes per 5 mm^3. This was then compared to the samples from control animals. The mean and standard deviation were calculated by using OriginPro9 and GraphPad Prism 5. Comparisons of parasite suppression were completed by the analysis of variance (two-way ANOVA as a […] statistical test).

CD-1 mice [2] = settings: mouse, in vivo; cited from earlier work
Leishmania infantum = test system: Leishmania infantum; set-up: method as in earlier work; settings: amastigotes; read-out: In vitro anti-Leishmania infantum (visceral) activity (IC50); cited from earlier work
zebrafish embryos = test system: zebrafish embryos; set-up: method as in earlier work; settings: cited from earlier work
CD1 and Balb/c mice = test system: CD1 and Balb/c mice; set-up: method as in earlier work; settings: cited from earlier work
T. cruzi amastigotes = test system: T. cruzi amastigotes; set-up: method as in earlier work; settings: read-out: In vitro anti-T. cruzi activity (multiple strains) (IC50); cited from earlier work
cruzipain = settings: cited from earlier work
[3] = test system: Salmonella typhimurium strains TA98, T100, T102, TA1535, and TA1537; settings: cited from earlier work
[4] = test system: Leishmania spp (cutaneous) promastigotes; set-up: method as in earlier work; settings: read-out: In vitro anti-Leishmania spp (cutaneous) activity (IC50); cited from earlier work
[5] = test system: epimastigote form of T. cruzi, Tulahuen 2 strain; experiment: Mechanism of death by flow cytometry, AV/IP labeling; type: cell-based; settings: 24 h; 20 × IC50
Description: Parasites were immediately analyzed on an Accuri C6 flow cytometer (BD Bioscience, Franklin Lakes, New Jersey, U.S.). […] Ten thousand events were analyzed for each of the two independent experiments. Data were analyzed using BD CSampler software (BD Bioscience). Untreated parasites were used as a control. For the positive control of apoptosis and necrosis, the parasites were treated with hydrogen peroxide (H2O2) 50 µM and 100 µM for 2.5 h, respectively. These single-spot controls were used to calculate color compensation for flow cytometry.

CD-1 mice [6] = experiment: Micronucleus test in mice (genotoxicity); settings: positive control, 50 mg/kg intraperitoneal, single dose 24 h before sacrifice
Description: The protocol was approved by the Paraguayan ethics committee for animal experimentation (No. IORG0010088). […] The treatment of each group was repeated five times, totaling 5 animals per concentration. The route used in the administration of the negative control and the compound (groups I and II) was oral, using an esophageal cannula and in group III the route was intraperitoneal. The intervention was carried out in two doses: 24 and 48 h before sacrifice, except for cyclophosphamide, which was administered in a single dose, 24 h before sacrifice. At the end of the experiment, the femurs were harvested, and the red bone marrow was removed with fetal bovine serum, kept at 37 °C. […] Samples were stained with 4 % Giemsa stain for 3 min and analyzed under an immersion light microscope. For each treated animal, 1000 polychromatic erythrocytes (EPCs) were counted, including those that presented micronucleus (EPCMNs). The ratio of polychromatic erythrocytes (EPC) vs. normochromatic erythrocytes (ENC), upon counting 100 cells, was also evaluated. The proportion of EPCMNs was calculated for each group, and the treated groups with the compound and cyclophosphamide were compared with the negative control group. The statistical analysis was carried out from the individual values of the evaluated parameters, calculating the mean values and their standard deviations for each of the experimental groups. […]

O=C(Cn1ccnc1[N+](=O)[O-])NCc1ccccc1 [Bnz, Benznidazole]
Days Post-Infection of the First Parasitemia Peak ([1]; 10 µmoles/kg/day): 15 days | Reduction in the Parasitemia Peak (%) ([1]; 10 µmoles/kg/day): 80% | Survival (%) ([1]; 10 µmoles/kg/day): 100% | Days Post-Infection of the First Parasitemia Peak ([1]; 38 µmoles/kg/day): 15 days | Reduction in the Parasitemia Peak (%) ([1]; 38 µmoles/kg/day): 90% | Survival (%) ([1]; 38 µmoles/kg/day): 100% | Days Post-Infection of the First Parasitemia Peak ([1]; 48 µmoles/kg/day): 43 days | Reduction in the Parasitemia Peak (%) ([1]; 48 µmoles/kg/day): 95% | Survival (%) ([1]; 48 µmoles/kg/day): 100%

CC(=NNC(N)=S)[C@H]1CC[C@H]2[C@@H]3CC=C4C[C@@H](O)CC[C@]4(C)[C@H]3CC[C@]12C [Compound 1260, 1-(3β-Hydroxy-pregn-5-ene-20E-ylydene)thiosemicarbazide]
Micronucleus test in mice (Genotoxicity) (CD-1 mice [2]): NO | IC50 (Leishmania infantum): < 200 nM | Teratogenicity in zebrafish (LD50) (zebrafish embryos): > 15 µM | Acute oral toxicity in mice (Up and Down test, LD50) (CD1 and Balb/c mice): > 2000 mg/kg of body weight | IC50 (T. cruzi amastigotes): 100 nM | Cruzipain inhibitor (known) (cruzipain): not an inhibitor of cruzipain | Ames test (mutagenicity) [3]: NO | IC50 [4]: < 20000 nM

CC1CS(=O)(=O)CCN1/N=C/c1ccc([N+](=O)[O-])o1 (stereo not shown) [Nfx, Nifurtimox, reference compound]
AV/IP labeling Q1-UR (double AV+/IP+ labeling) [5]: 59%

O=P1(N(CCCl)CCCl)NCCCO1 (stereo not shown) [cyclophosphamide, reference compound]
Micronucleus test in mice (Genotoxicity) (mean of MnPE ±SD) (CD-1 mice [6]): 36 ± 2 MnPE and 36 ± 2 (cyclophosphamide) MnPE
